Data reported in PMC4667195, “Tumor-selective peptide-carrier delivery of Paclitaxel increases in vivo activity of the drug” (Scientific Reports, 2015).

Legend:
[1] = tested on: SKOV-3 human ovary adenocarcinoma cells; test: Cytotoxicity (MTT growth inhibition) in SKOV-3; format: cell-based; conditions: SK-OV-3, 1 h incubation, wash, then 6 days at 37 °C without drug, 128 pM to 10 μM, performed twice in triplicate
Method: (§1) Growth inhibition was assessed by 3-(4,5-dimethylthiazol-2-yl)-2,5-diphenyltetrazolium bromide (MTT). […] The experiment was performed twice in triplicate.
(§2) EC50 values were calculated by non-linear regression analysis using Graph Pad Prism 5.03 software.

[2] = tested on: orthotopic MDA-MB 231-luc2 tumors; test: Tumor growth in orthotopic MDA-MB 231-luc2 mouse model; format: in vivo, athymic nude mice; conditions: 2.86 μmol/Kg i.v. every 4 days
Method: MDA-MB 231-luc2 cells were injected orthotopically in the mammary fat pads of female athymic nude mice. […] Tumor growth was monitored by measuring volumes every 4 days with a caliber rule and by imaging luciferase reporter expression in tumor cells with a Photon Imager system at 8-day intervals.
Orthotopic breast tumors were established by injecting 1 × 10^6 MDA-MB 231-luc2 cells into the fourth mammary fat pad of athymic nude mice (Harlan Laboratories). Tumor growth was monitored every four days by measuring two perpendicular diameters with caliber. Tumor volume (V) was calculated by the following equation: V = (a^2 × b)/2, where “a” is the width of the tumor (small diameter), and b the length (large diameter), both in millimeters[22].
Treatments were started when the tumors reached at least 80 mm^3 in volume.
Tumor growth was also monitored by imaging luciferase reporter expression in tumor cells. To track MDA-MB 231-luc2 cells, bioluminescent optical imaging was performed using a Photon Imager system (Biospace Lab, Paris, France) including a cooled charge-coupled device (CCD) camera. Prior to imaging, mice were anaesthetized by intraperitoneal (i.p.) injection of 275 mg/kg Avertin. […] Bioluminescence was quantified by automatic measurement. ROI optical images were analyzed with M3 Vision software (Biospace Lab, Paris, France).

[3] = tested on: MDA-MB 231 human breast adenocarcinoma cells; test: Cytotoxicity (MTT growth inhibition) in MDA-MB 231; format: cell-based; conditions: 1 h incubation, wash, then 6 days at 37 °C without drug, 128 pM to 10 μM, performed twice in triplicate
Method: as §1, §2

## CC(=O)O[C@H]1C(=O)[C@@]2(C)[C@H]([C@H](OC(=O)c3ccccc3)[C@]3(O)C[C@H](OC(=O)[C@H](O)[C@@H](NC(=O)c4ccccc4)c4ccccc4)C(C)=C1C3(C)C)[C@]1(OC(C)=O)CO[C@@H]1C[C@@H]2O [PTX, Paclitaxel]
[1]
  EC50: 29 nM
[2]; days 4, 8, 12 and 16, n = 5 mice
  Slope of average tumor volume (percentage of the volume at day 4) versus time: 5.5
[2]; during treatment, days 4 to 16
  Effect on tumor growth (in words): clear reduction in tumor growth with respect to controls, but not tumor regression
[3]
  EC50: 62 nM
